The Ki is a measure of affinity in units of concentration, obtained from inhibition or displacement. A high value points to lower affinity.

Among the targets are Carbonic anhydrase 9 (Homo sapiens, UniProt Q16790); Carbonic anhydrase 2 (Homo sapiens, UniProt P00918); Carbonic anhydrase 1 (Homo sapiens, UniProt P00915).

Chain of Carbonic anhydrase 1 (P00915 whole entry): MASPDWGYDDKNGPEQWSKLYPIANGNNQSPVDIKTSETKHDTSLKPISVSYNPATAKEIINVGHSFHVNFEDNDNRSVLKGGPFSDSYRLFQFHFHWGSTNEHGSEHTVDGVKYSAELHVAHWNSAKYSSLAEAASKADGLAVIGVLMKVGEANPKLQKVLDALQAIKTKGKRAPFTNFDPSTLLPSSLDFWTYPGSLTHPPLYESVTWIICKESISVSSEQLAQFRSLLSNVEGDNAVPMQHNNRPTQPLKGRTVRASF
Description for Carbonic anhydrase 1: Inhibitory activity against human cloned Carbonic anhydrase I by the CO2 hydration method
Description for Carbonic anhydrase 2: Inhibitory activity against human cloned Carbonic anhydrase II by the CO2 hydration method
Description for Carbonic anhydrase 9: Inhibitory activity against catalytic domain of human cloned Carbonic anhydrase IX by the CO2 hydration method

Take `O=S1(=O)C=Cc2ccc(S(=O)(=O)NCc3ccccc3)cc21`: the Ki at Carbonic anhydrase 9, at Carbonic anhydrase 2 and on Carbonic anhydrase 1 was above 1000 nM each time.
For the compound `NS(=O)(=O)c1ccc2c(c1)S(=O)(=O)C=C2`, the Ki stood at 15 nM on Carbonic anhydrase 9, 7.5 nM at Carbonic anhydrase 2 and 63 nM on Carbonic anhydrase 1.
In the same order, the values of `COc1cccc(NS(=O)(=O)c2ccc3c(c2)C=CS3(=O)=O)c1` are above 1000 nM, above 1000 nM and above 1000 nM.
In the same order, the values of `CCCCOC1CS(=O)(=O)c2cc(S(N)(=O)=O)ccc21` (stereo not given) are 3.1 nM, 6.3 nM and 104 nM.
On to `O=S1(=O)C=Cc2ccc(S(=O)(=O)NCC3CC3)cc21`, for which the Ki was 76 nM at Carbonic anhydrase 9, 475 nM at Carbonic anhydrase 2 and 493 nM on Carbonic anhydrase 1.
In the same order, the values of `NS(=O)(=O)c1ccc2c(c1)S(=O)(=O)CC2OCc1ccccc1` (stereo not given) are 2.8 nM, 7.9 nM and 138 nM.
In the same order, the values of `CCNS(=O)(=O)c1ccc2c(c1)S(=O)(=O)C=C2` are 362 nM, 436 nM and 530 nM.
Taken in the same sequence, the figures for `NS(=O)(=O)c1ccc2c(c1)S(=O)(=O)CC2` were 10 nM, 8.8 nM and 72 nM.
As for `NS(=O)(=O)c1ccc2c(c1)C=CS2(=O)=O`, the Ki on Carbonic anhydrase 9 worked out at 13 nM; at Carbonic anhydrase 2, 7.4 nM; at Carbonic anhydrase 1, 75 nM.
Turning to `CC1=CS(=O)(=O)c2cc(S(N)(=O)=O)ccc21`, the Ki on Carbonic anhydrase 9 was determined as 13 nM; at Carbonic anhydrase 2 it was 8.3 nM; on Carbonic anhydrase 1, 85 nM.

The values above are taken from ChEMBL document CHEMBL1140403, “Carbonic anhydrase inhibitors: inhibition of cytosolic/tumor-associated carbonic anhydrase isozymes I, II, and IX with benzo[b]thiophene 1,1-dioxide sulfonamides” (Bioorg Med Chem Lett, 2005).
